Experimental data taken from patent US20240051968A1, “METHODS FOR TREATING SPINOCEREBELLAR ATAXIA TYPE 3” (PTC Therapeutics, Inc., priority 2021, published 2024).
pIC50: −log10 of the molar value.

Columns and labels:
ATXN3 pre-mRNA = assay: RT-qPCR Assay to Quantify Exon 4 Skipping in ATXN3 pre-mRNA in Cells; format: cell-based; settings: cells incubated with compound 24 h, 7-point concentration curve, GAPDH control
Experimental: (§1) RT-qPCR Assay to Quantify Exon 4 Skipping in ATXN3 pre-mRNA in Cells Test compounds were serially diluted 3.16-fold in 100% DMSO to generate a 7-point concentration curve. Aliquots of 0.5 μL of diluted compounds were transferred to a 96-well flat bottom plate by a liquid handler. An aliquot of 0.5 μL DMSO was also transferred to separate wells and used as controls. Duplicate samples were set up for each compound concentration and for the DMSO control.
Cells were thawed and incubated in cell culture media (DMEM, 10% FBS, and 1% antibiotic cocktail) for 72 h. Cells were trypsinized, counted, and re-suspended to a concentration of 100,000 cells/mL in cell culture media. A 100 μL aliquot of the cell suspensions were plated at 10,000 cells per well in the compound containing 96 well microtiter plate and incubated for in a cell culture incubator (37° C., 5% CO2, 100% relative humidity).
After 24 h, media was aspirated from the cells and 50 μL of the RCL2 lysis buffer (10 mM Tris-HCL pH 7.4, 150 mM NaCl, 0.33% IGEPAL® CA-630) was added to each well and incubated at room temperature for 1 min. Chilled nuclease free water (50 μL per well) was added and the plates were immediately transferred on ice. After 1 min on ice, plates were frozen at −80° C. overnight.
Preparation of RT-qPCR Reaction Mixture:
An aliquot of 2 μL/well of the cell lysates was transferred using the liquid handler to the Armadillo 384-Well PCR plate containing 8 μL/well of the RT-qPCR reaction mixture that was prepared as detailed above. The plates were then sealed with MicroAmp™ Optical Adhesive Film followed by spinning down for 1 min and placed in the CFX384 thermocycler (BioRad).
The RT-qPCR was carried out at the following temperatures for the indicated time: • Step 1: 48° C. (30 min) • Step 2: 95° C. (10 min) • Step 3: 95° C. (15 sec) • Step 4: 60° C. (1 min); then, repeated Steps 3 and 4 for a total of 40 cycles.
The percent exon 4 skipping was calculated for each dose of compound treatment using Equations 1 and 2.
Data were fit to a dose response curve and the IC50 was interpolated using XLfit® statistical and curve fitting package.
An IC50 value between >2.0 μM and ≤3.0 μM is indicated by one star (*). […] IC50 value between >0.5 μM and ≤1.0 μM is indicated by four stars (****). An IC50 value ≤0.5 μM is indicated by five stars (*****).

[1] = test system: Total ATXN3 (tATXN3) protein; assay: Endogenous Total ATXN3 (tATXN3) Protein Assay (MSD immunoassay of cell lysates); format: cell-based; settings: cells incubated with compound 48 h; 7-point concentration curve; MSD detection in cell lysate
Experimental: Endogenous Total ATXN3 (tATXN3) Protein Assay
Meso Scale Discovery (MSD) 96-well or 384-well plates were coated overnight at 4° C. with Ataxin 3 mouse monoclonal antibody (Invitrogen, MA3-082) at a concentration of 0.5 μg/mL in PBS (30 μL per well). Plates were then washed three times with 300 μL wash buffer (0.05% TWEEN®-20, polyethylene glycol sorbitan monolaurate, in PBS) and blocked (Meso Scale Diagnostics, R93BA-1; 5% BSA in PBS) for 2 h at room temperature with rotational shaking and then washed three times with wash buffer.
as §1, with “Test” for “RT-qPCR Assay to Quantify Exon 4 Skipping in ATXN3 pre-mRNA in Cells Test”
Cells were thawed and incubated in cell culture media (DMEM, 10% FBS, and 1% antibiotic cocktail) for 72 h. Cells were trypsinized, counted, and re-suspended to a concentration of 100,000 cells/mL in cell culture media. A 100 μL aliquot of the cell suspensions were plated at 10,000 cells per well in the compound containing 96 well microtiter plate and incubated for in a cell culture incubator (37° C., 5% CO2, 100% relative humidity). After 48 h, the medium was removed and 50-100 μL of lysis buffer (Meso Scale Diagnostics, R60TX-2) containing 1× halt protease inhibitor cocktail of (Thermo Scientific, Halt™ Protease Inhibitor Cocktail, 78430) per well was added to cells to provide a “cell lysate”. The plate was placed on a shaker at 4° C. for 30 minutes, then stored at −80° C.
Cell lysate samples (25 μL) were transferred to the antibody-coated MSD plate and incubated overnight at 4° C. After removal of the lysates, the plate was washed three times with wash buffer, and 25 μL of Ataxin 3 recombinant rabbit monoclonal antibody (Invitrogen, #702788) secondary antibody (diluted to 0.25 μg/mL in 0.05% TWEEN®-20 in blocking buffer) was added to each well and incubated with shaking for 1-2 h at room temperature. Following incubation with the secondary antibody, the wells were rinsed with wash buffer and then […] Anti Rabbit Antibody Goat SULFO-TAG Labeled (Meso Scale Diagnostics, R32AB-1) detecting antibody (diluted to 0.25 μg/mL in 0.05% TWEEN®-20 in blocking buffer) was added to each well and incubated with shaking for 1 h at room temperature. After rinsing three times with wash buffer, 150 μL of Read Buffer T with surfactant (tris-based buffer containing tripropylamine, Meso Scale Diagnostics, R92TC-1) were added to each empty well, and the plate was imaged on a SI 6000 imager (MSD) according to manufacturers' instructions provided for 96- or 384-well plates.

Row | IC50, exon 4 skipping in ATXN3 pre-mRNA (ATXN3 pre-mRNA) | IC50 (average), total ATXN3 protein [1] | Compound | pIC50 (ATXN3 pre-mRNA) | pIC50 [1]
1 | inactive | inactive | Clc1cc(NCc2ccco2)c2scc(Cl)c2n1 [Cpd 6, 3,5-dichloro-N-[(furan-2-yl)methyl]thieno[3,2-b]pyridin-7-amine] | – | –
2 | – | inactive | Clc1cc(NCc2ccco2)c2scc(Br)c2n1 [Cpd 7, 3-bromo-5-chloro-N-[(furan-2-yl)methyl]thieno[3,2-b]pyridin-7-amine] | 5.82 to 6.00 | –
3 | – | – | C[C@H](N)Cc1cc2nc(Cl)cc(NCc3ccco3)c2s1 [Cpd 16, 2-[(2S)-2-aminopropyl]-5-chloro-N-[(furan-2-yl)methyl]thieno[3,2-b]pyridin-7-amine] | ≥ 6.30 | ≥ 6.30
4 | – | – | N[C@@H](CO)Cc1cc2nc(Cl)cc(NCc3ccco3)c2s1 [Cpd 17, (2R)-2-amino-3-(5-chloro-7-{[(furan-2-yl)methyl]amino}thieno[3,2-b]pyridin-2-yl)propan-1-ol] | ≥ 6.30 | ≥ 6.30
5 | – | – | Cc1c(C[C@H](C)N)sc2c(NCc3ccco3)cc(Cl)nc12 [Cpd 18, 2-[(2S)-2-aminopropyl]-5-chloro-N-[(furan-2-yl)methyl]-3-methylthieno[3,2-b]pyridin-7-amine] | ≥ 6.30 | ≥ 6.30
6 | – | – | Cc1c(C[C@H](C)N)sc2c(NCc3ccccc3F)cc(Cl)nc12 [Cpd 29, 2-[(2S)-2-aminopropyl]-5-chloro-N-[(2-fluorophenyl)methyl]-3-methylthieno[3,2-b]pyridin-7-amine] | ≥ 6.30 | ≥ 6.30
7 | – | – | Cc1c(C[C@H](C)N)sc2c(NCc3ccco3)ccnc12 [Cpd 34, 2-[(2S)-2-aminopropyl]-N-[(furan-2-yl)methyl]-3-methylthieno[3,2-b]pyridin-7-amine] | ≥ 6.30 | ≥ 6.30
8 | – | – | Cc1c(C[C@H](C)N)sc2c(NCc3ccncc3F)cc(Cl)nc12 [Cpd 35, 2-[(2S)-2-aminopropyl]-5-chloro-N-[(3-fluoropyridin-4-yl)methyl]-3-methylthieno[3,2-b]pyridin-7-amine] | ≥ 6.30 | ≥ 6.30
9 | – | – | C[C@H](N)Cc1sc2c(NCc3ccco3)cc(Cl)nc2c1Cl [Cpd 36, 2-[(2S)-2-aminopropyl]-3,5-dichloro-N-[(furan-2-yl)methyl]thieno[3,2-b]pyridin-7-amine] | ≥ 6.30 | ≥ 6.30
10 | – | – | N[C@@H](CO)Cc1sc2c(NCc3ccco3)cc(Cl)nc2c1Cl [Cpd 39, (2R)-2-amino-3-(3,5-dichloro-7-{[(furan-2-yl)methyl]amino}thieno[3,2-b]pyridin-2-yl)propan-1-ol] | ≥ 6.30 | ≥ 6.30
11 | – | – | COC[C@H](N)Cc1sc2c(NCc3ccco3)cc(Cl)nc2c1Cl [Cpd 40, 2-[(2R)-2-amino-3-methoxypropyl]-3,5-dichloro-N-[(furan-2-yl)methyl]thieno[3,2-b]pyridin-7-amine] | ≥ 6.30 | ≥ 6.30
12 | – | – | N[C@@H](CO)Cc1sc2c(NCc3ccco3)cc(Cl)nc2c1Br [Cpd 41, (2R)-2-amino-3-(3-bromo-5-chloro-7-{[(furan-2-yl)methyl]amino}thieno[3,2-b]pyridin-2-yl)propan-1-ol] | ≥ 6.30 | ≥ 6.30
13 | – | – | CN[C@@H](C)Cc1sc2c(NCc3ccco3)cc(Cl)nc2c1C [Cpd 42, 5-chloro-N-[(furan-2-yl)methyl]-3-methyl-2-[(2S)-2-(methylamino)propyl]thieno[3,2-b]pyridin-7-amine] | 6.00 to 6.30 | ≥ 6.30
14 | – | – | COC[C@H](N)Cc1sc2c(NCc3ccco3)cc(Cl)nc2c1Br [Cpd 44, 2-[(2R)-2-amino-3-methoxypropyl]-3-bromo-5-chloro-N-[(furan-2-yl)methyl]thieno[3,2-b]pyridin-7-amine] | ≥ 6.30 | ≥ 6.30
15 | – | – | COC[C@H](N)Cc1sc2c(NCc3ccco3)cc(Cl)nc2c1C [Cpd 45, 2-[(2R)-2-amino-3-methoxypropyl]-5-chloro-N-[(furan-2-yl)methyl]-3-methylthieno[3,2-b]pyridin-7-amine] | ≥ 6.30 | ≥ 6.30
16 | – | – | C[C@H](N)Cc1sc2c(NCc3ccco3)cc(Cl)nc2c1C1CC1 [Cpd 51, 2-[(2S)-2-aminopropyl]-5-chloro-3-cyclopropyl-N-[(furan-2-yl)methyl]thieno[3,2-b]pyridin-7-amine] | ≥ 6.30 | ≥ 6.30
17 | – | – | C[C@H](N)Cc1sc2c(NCc3cccs3)cc(Cl)nc2c1Cl [Cpd 52, 2-[(2S)-2-aminopropyl]-3,5-dichloro-N-[(thiophen-2-yl)methyl]thieno[3,2-b]pyridin-7-amine] | ≥ 6.30 | ≥ 6.30
18 | – | – | C[C@H](N)Cc1sc2c(NCc3cccs3)cc(Cl)nc2c1Br [Cpd 53, 2-[(2S)-2-aminopropyl]-3-bromo-5-chloro-N-[(thiophen-2-yl)methyl]thieno[3,2-b]pyridin-7-amine] | ≥ 6.30 | ≥ 6.30
19 | – | – | Cc1c(C[C@H](C)N)sc2c(NCc3cccs3)cc(C#N)nc12 [Cpd 54, 2-[(2S)-2-aminopropyl]-3-methyl-7-{[(thiophen-2-yl)methyl]amino}thieno[3,2-b]pyridine-5-carbonitrile] | ≥ 6.30 | ≥ 6.30
20 | – | – | Cc1c(C[C@H](C)N)sc2c(NCc3nccs3)cc(Cl)nc12 [Cpd 57, 2-[(2S)-2-aminopropyl]-5-chloro-3-methyl-N-[(1,3-thiazol-2-yl)methyl]thieno[3,2-b]pyridin-7-amine] | ≥ 6.30 | ≥ 6.30
21 | – | – | Cc1c(C[C@@H](N)CO)sc2c(NCc3ccco3)cc(Cl)nc12 [Cpd 58, (2R)-2-amino-3-(5-chloro-7-{[(furan-2-yl)methyl]amino}-3-methylthieno[3,2-b]pyridin-2-yl)propan-1-ol] | ≥ 6.30 | ≥ 6.30
22 | inactive | inactive | Cc1c(C[C@H](N)CF)sc2c(NCc3ccco3)cc(Cl)nc12 [Cpd 59, 2-[(2S)-2-amino-3-fluoropropyl]-5-chloro-N-[(furan-2-yl)methyl]-3-methylthieno[3,2-b]pyridin-7-amine] | – | –
23 | – | – | Cc1c(C[C@@H](N)CC(C)C)sc2c(NCc3cccs3)cc(Cl)nc12 [Cpd 61, 2-[(2S)-2-amino-4-methylpentyl]-5-chloro-3-methyl-N-[(thiophen-2-yl)methyl]thieno[3,2-b]pyridin-7-amine] | ≥ 6.30 | ≥ 6.30
24 | – | – | N[C@H](CF)Cc1sc2c(NCc3cccs3)cc(Cl)nc2c1Br [Cpd 63, 2-[(2S)-2-amino-3-fluoropropyl]-3-bromo-5-chloro-N-[(thiophen-2-yl)methyl]thieno[3,2-b]pyridin-7-amine] | 5.70 to 5.82 | < 5.70
